Values after ≈ are worked out from the molar mass of the structure shown.

As usually defined, the solubility is the concentration that dissolves in the medium under given conditions. Read a high solubility as a readily soluble substance.

A short description of the data set: Udenafil solubility test at different pHs. Type of data set: physicochemical. As to conditions: thermodynamic from solid; in purified water (Comparative Example 1). As to the method:
A pH adjusting agent was added to 5 ml of purified water, and the mixture was stirred for 10 minutes, and then udenafil was added thereto, thus preparing the solutions shown in Table 1 above.
Detector: UV detector (292 nm)
Column temperature: 30° C.
Mobile phase: 2.72 g of KH2PO4 dissolved in 1 L of purified water (A); acetonitrile (B); A:B=700:300

Consider `CCCOc1ccc(S(=O)(=O)NCCC2CCCN2C)cc1-c1nc2c(CCC)nn(C)c2c(=O)[nH]1` (stereo not shown) [Udenafil, 5-[2-propyloxy-5-(1-methyl-2-pyrrolidinyleneamidosulfonyl)phenyl]-1-methyl-1-propyl-1,6-dihydro-7H-pyrazolo(4,3-d)pyrimidin-7-one], for which the solubility at 2 h is approximately 120 µg/mL (≈ 232 µM).
